This passage reports IC50 results from patent EP2951180B1, “2,6,7,8 SUBSTITUTED PURINES AS HDM2 INHIBITORS” (Merck Sharp & Dohme Corp., priority 2013, dated 2014).

T1 sequence (Q00987 17-125): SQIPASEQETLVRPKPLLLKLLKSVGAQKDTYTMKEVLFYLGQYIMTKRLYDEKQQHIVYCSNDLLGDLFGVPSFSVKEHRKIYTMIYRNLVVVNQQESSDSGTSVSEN

One test concerns the target T1, HDM2 (Homo sapiens, UniProt Q00987).
T1 construct: Thioredoxin (N); made in house; host or cells: E. coli strain BL21(DE3)Rosetta
The experiment in a line: HDM2 FRET assay (inhibition of binding of FITC labeled p53-pocket peptide to HDM2). Conditions: 0.5 nM HDM2 (residues 17 to 125), 3nM peptide, two hour incubation at room temperature; read-out: FRET IC50. The text has this:
Methods: An HDM2 FRET assay was developed to assess the compounds' inhibitory activity towards binding of p53 protein. […] Protein was purified using Ni-affinity chromatography, followed by size exclusion chromatography using Superdex 75 26/60 column. […] The HDM2 assay buffer contained 1x Phosphate Buffered Saline (Invitrogen, Cat#14190), 0.01% BSA (Jackson ImmunoResearch, Cat# 001-000-162), 0.01% Tween-20. In the 1X assay buffer recombinant HDM2 protein, peptide and Lumi4-Tb Cryptate-conjugate mouse anti-6xHis antibody (cisbio, Cat#Tb61HISTLB) were added and transferred to ProxiPlate PLUS (PerkinElmer, Cat#6008269), containing compounds so that final DMSO concentration is 0.1% . Final concentrations of reagents in the assay wells are 0.5 nM HDM2, 0.25nM anti HIS (Tb label) antibody and 3nM peptide. […] Ratio of em520/em495 was used to calculate %inhibition and to obtain IC50 with 4-parameter logistic equation.
IC50 DETERMINATIONS: Dose-response curves were plotted from the inhibition data, from 10 point serial dilutions of inhibitory compounds. Concentration of compound was plotted against em520/Cem495 ratio signal. To generate IC50 values, the dose-response curves were fitted to a standard sigmoidal curve and IC50 values were derived by nonlinear regression analysis.
In general, IC50 refers to the point on the concentration scale where inhibition reaches its midpoint. `C[C@@H](Nc1nc(N2CC(C(=O)O)C(C)(C)C2)nc2nc(N3CCOC[C@H]3c3ccccc3)n(C[C@H]3CC[C@H](C)CC3)c12)C1CCC1` (stereo partly drawn) [Example 13.11, 1-(6-{[(1R)-1-cyclobutylethyl]amino}-7-[(trans-4-methylcyclohexyl)methyl]-8-[(3R)-3-phenylmorpholin-4-yl]-7H-purin-2-yl)-4,4-dimethylpyrrolidine-3 - carboxylic acid]: the IC50 worked out at 95.9 nM.
Still for that read-out and setting: the value for `Cc1cccc(-c2nc(-c3noc(=O)[nH]3)nc3nc(N4CCOC[C@H]4C)n(C[C@H]4CC[C@H](C)CC4)c23)c1` [Example 16.28, 3-{7-[(trans-4-methylcyclohexyl)methyl]-8-[(3R)-3-methylmorpholin-4-yl]-6-(3-methylphenyl)-7H-purin-2-yl}-1,2,4-oxadiazol-5(4H)-one] was 38.7 nM; that for `Cc1cccc(-c2nc3nc(-c4nc[nH]n4)nc(N[C@H](C)C4CC4)c3n2Cc2ccc(C(F)(F)F)cc2)c1` [Example 12.28, N-[(1R)-1-cyclopropylethyl]-8-(3-methylphenyl)-2-(1H-1,2,4-triazol-3-yl)-7-[4-(trifluoromethyl)benzyl]-7H-purin-6-amine] was 314 nM.
As for `C[C@@H]1COC[C@@H](C)N1c1nc2nc(-c3n[nH]c(=O)o3)nc(-c3cncc(Cl)c3)c2n1C[C@H]1CC[C@H](C)CC1` [Example 16.105, 5-{6-(5-chloropyridin-3-yl)-8-[(3R,5R)-3,5-dimethylmorpholin-4-yl]-7-[(trans-4-methylcyclohexyl)methyl]-7H-purin-2-yl}-1,3,4-oxadiazol-2(3H)-one], the IC50 was found to be 11 nM.
Still for that read-out and setting: with `Cc1cncc(-c2nc(-c3noc(=O)[nH]3)nc3nc(N4CCOC[C@H]4c4ccccc4)n(C[C@H]4CC[C@H](C)CC4)c23)c1` [Example 16.115, 3-{7-[(trans-4-methylcyclohexyl)methyl]-6-(5-methylpyridin-3-yl)-8-[(3R)-3-phenylmorpholin-4-yl]-7H-purin-2-yl}-1,2,4-oxadiazol-5(4H)-one] the figure was 3.92 nM; with `C[C@@H]1[C@@H](C)OCCN1c1nc2nc(-c3n[nH]c(=O)o3)nc(-c3cncc(Cl)c3)c2n1C[C@H]1CC[C@H](C)CC1` [Example 16.140, 5-{6-(5-chloropyridin-3-yl)-8-[(2R,3R)-2,3-dimethylmorpholin-4-yl]-7-[(trans-4-methylcyclohexyl)methyl]-7H-purin-2-yl}-1,3,4-oxadiazol-2(3H)-one], 9.45 nM.

Staying with this test, now noted: Table 6; read-out: FRET IC50.
Consider `Cc1cccc(-c2nc3nc(C(=O)O)nc(N4CCCC4)c3n2Cc2ccc(C(F)(F)F)cc2)c1` [Example 6.23, 8-(3-methylphenyl)-6-pyrrolidin-1-yl-7-[4-(trifluoromethyl)benzyl]-7H-purine-2-carboxylic acid], for which the IC50 was 8270 nM.
Still for that read-out and setting: with `Cc1cccc(-c2nc3nc(C(=O)O)nc(NC4CCCCC4C)c3n2Cc2ccc(C(F)(F)F)cc2)c1` (stereo not shown) [Example 6.8, 6-[(2-methylcyclohexyl)amino]-8-(3-methylphenyl)-7-[4-(trifluoromethyl)benzyl]-7H-purine-2-carboxylic acid] the figure was 228 nM; with `CCCCCN(C)c1nc(C(=O)O)nc2nc(-c3cccc(C)c3)n(Cc3ccc(C(F)(F)F)cc3)c12` [Example 6.91, 6-[methyl(pentyl)amino] -8-(3-methylphenyl)-7-[4-(trifluoromethyl)benzyl]-7H-purine-2-carboxylic acid], 731 nM; with `CCCCN(CCC)c1nc(C(=O)O)nc2nc(-c3cccc(C)c3)n(Cc3ccc(C(F)(F)F)cc3)c12` [Example 6.68, 6-[butyl(propyl)amino]-8-(3-methylphenyl)-7-[4-(trifluoromethyl)benzyl]-7H-purine-2-carboxylic acid], 681 nM.
Still for that read-out and setting: with `Cc1cccc(-c2nc3nc(C(=O)O)nc(N[C@H](C)C4CC4)c3n2Cc2ccc(F)c(Cl)c2)c1` [Example 6.15, 7-(3-chloro-4-fluorobenzyl)-6-{[(1R)-1-cyclopropylethyl]amino}-8-(3-methylphenyl)-7H-purine-2-carboxylic acid] the figure was 371 nM.
On to `Cc1cccc(-c2nc3nc(C(=O)O)nc(N[C@@H](C)c4ccccc4)c3n2Cc2ccc(C(F)(F)F)cc2)c1` [Example 6.31, 8-(3-methylphenyl)-6-{[(1S)-1-phenylethyl]amino}-7-[4-(trifluoromethyl)benzyl]-7H-purine-2-carboxylic acid], for which the IC50 was found to be 4300 nM.

The same test, now with this note: Table 7; read-out: FRET IC50.
In the case of `Cc1cccc(-c2nc3nc(C(=O)O)nc(N[C@H](CCCN(C)C)C4CCC4)c3n2Cc2ccc(C(F)(F)F)cc2)c1` [Example 7.11, 6-{[(1R)-1-cyclobutyl-4-(dimethylamino)butyl]amino}-8-(3-methylphenyl)-7-[4-(trifluoromethyl)benzyl]-7H-purine-2-carboxylic acid], the IC50 worked out at 323 nM.

Still in this test, the particulars now being: Table 9; read-out: FRET IC50.
Turning to `CC(C)CC1CCCCN1c1nc2nc(C(=O)O)nc(N[C@H](C)C3CCC3)c2n1Cc1ccc(C(F)(F)F)cc1` (stereo partly drawn) [Example 9.120, 6-{[(1R)-1-cyclobutylethyl]amino}-8-[2-(2-methylpropyl)piperidin-1-yl]-7-[4-(trifluoromethyl)benzyl]-7H-purine-2-carboxylic acid], the IC50 was 5.32 nM.
Still for that read-out and setting: with `CC1CN(c2nc3nc(C(=O)O)nc(N[C@H](C)C4CCC4)c3n2Cc2ccc(C(F)(F)F)cc2)CCO1` (stereo partly drawn) [Example 9.20, 6-{[(1R)-1-cyclobutylethyl]amino}-8-(2-methylmorpholin-4-yl)-7-[4-(trifluoromethyl)benzyl]-7H-purine-2-carboxylic acid] the figure was 63.1 nM; with `Cc1cc(-c2ccccc2)nn1-c1nc2nc(C(=O)O)nc(N[C@H](C)C3CCC3)c2n1Cc1ccc(C(F)(F)F)cc1` [Example 9.61, 6-{[(1R)-1-cyclobutylethyl]amino}-8-(5-methyl-3-phenyl-1H-pyrazol-1-yl)-7-[4-(trifluoromethyl)benzyl]-7H-purine-2-carboxylic acid], 300 nM; with `C[C@@H](Nc1nc(-c2noc(=O)[nH]2)nc2nc(N3CCOC[C@H]3c3ccccc3)n(Cc3ccc(C(F)(F)F)cc3)c12)C1CCC1` [Example 9.57, 3-(6-{[(1R)-1-cyclobutylethyl]amino}-8-[(3R)-3-phenylmorpholin-4-yl]-7-[4-(trifluoromethyl)benzyl]-7H-purin-2-yl)-1,2,4-oxadiazol-5(4H)-one], 1.72 nM.
Same read-out and setting: the value for `C[C@@H](Nc1ncnc2nc(N[C@@H](CO)c3ccccc3)n(Cc3ccc(C(F)(F)F)cc3)c12)C1CCC1` [Example 9.29] was 4470 nM.

The same test, now with this note: Table 10; read-out: FRET IC50.
Turning to `CC(Oc1ccccc1)c1nc2nc(C(=O)O)nc(N[C@H](C)C3CCC3)c2n1Cc1ccc(C(F)(F)F)cc1` (stereo partly drawn) [Example 10.8, 6-(((R)-1-Cyclobutylethyl)amino)-8-(1-phenoxyethyl)-7-(4-(trifluoromethyl)benzyl)-7H-purine-2-carboxylic acid], the IC50 worked out at 28.9 nM.

Still in this test, the particulars now being: Table 11; read-out: FRET IC50.
For the molecule `C[C@@H](Nc1nc(-c2noc(=O)[nH]2)nc2nc(N3CCOCC3c3ccccc3Cl)n(C[C@H]3CC[C@H](C)CC3)c12)C1CCC1` (single isomer, unassigned) [Example 11.118], the IC50 worked out at 0.568 nM.
The same measure, in the same setting: with `Cc1nn(C)cc1CNc1nc2nc(-c3noc(=O)[nH]3)nc(N[C@H](C)C3CCC3)c2n1C[C@H]1CC[C@H](C)CC1` [Example 11.109, 3-(6-{[(1R)-1-cyclobutylethyl]amin ο}-8-{[(1,3-dimethyl-1H-pyrazol-4-yl)methyl]amino} -7-[(trans-4-methylcyclohexyl)methyl]-7H-purin-2-yl)-1,2,4-oxadiazol-5(2H)-one] the figure was 55.6 nM.
On the same count and under the same terms, the value for `C[C@@H](Nc1nc(-c2noc(=O)[nH]2)nc2nc(N3CC(C)(O)C3)n(C[C@H]3CC[C@H](C)CC3)c12)C1CCC1` [Example 11.103, 3-(6-{[(1R)-1-cyclobutylethyl]amino}-8-(3-hydroxy-3-methylazetidin-1-yl)-7-[(trans-4-methylcyclohexyl)methyl]-7H-purin-2-yl)-1,2,4-oxadiazol-5(2H)-one] was 36.2 nM.
Same read-out and setting: the value for `C[C@H]1CC[C@H](Cn2c(N3CCOC[C@H]3c3ccccc3)nc3nc(-c4noc(=O)[nH]4)nc(N4CCCC4C4CCC4)c32)CC1` (stereo partly drawn) [Example 11.62, 3-{6-(2-cyclobutylpyrrolidin-1-yl)-7-[(trans-4-methylcyclohexyl)methyl]-8-[(3R)-3-phenylmorpholin-4-yl]-7H -purin-2-yl}-1,2,4-oxadiazol-5(4H)-one] was 7.84 nM.

Staying with this test, now noted: Table 21; read-out: FRET IC50.
Turning to `Cc1nc2nc(C(=O)O)nc(N[C@H](C)C3CCC3)c2n1C[C@H]1CC[C@H](C)CC1` [Example 21.9, 6-{[(1R)-1-cyclobutylethyl]amino}-8-methyl-7-[(trans-4-methylcyclohexyl)methyl]-7H-purine-2-carboxylic acid], the IC50 is 101 nM.

Still in this test, the particulars now being: Table 22; read-out: FRET IC50.
Take `Cc1nc(C2(c3nc4nc(-c5noc(=O)[nH]5)nc(N[C@H](C)C5CCC5)c4n3C[C@H]3CC[C@H](C)CC3)CC2)c(C)s1` [Example 22.72, 3-(6-{[(1R)-1-cyclobutylethyl]amino}-8-[1-(2,5-dimethyl-1,3-thiazol-4-yl)cyclopropyl]-7-[(trans-4-methylcyclohexyl)methyl] -7H-purin-2-yl)-1,2,4-oxadiazol-5(4H)-one]: the IC50 was determined as 3.04 nM.
